The NIST ThermoML archive (doi:10.1016/j.jct.2012.03.002)

Key:
[1] = 298.15 K, 101 kPa, Liquid; for viscosity: Capillary tube (Ostwald / Ubbelohde) method; for mass density: Vibrating tube method
[2] = refractive index (Na D-line) (dimensionless); details: 298.15 K; 101 kPa; Liquid; Standard Abbe refractometry
[3] = wn = mass fraction of the nth substance listed; details: 298.15 K, 101 kPa, Liquid; for viscosity: Capillary tube (Ostwald / Ubbelohde) method; for mass density: Vibrating tube method
[4] = refractive index (Na D-line) (dimensionless); wn = mass fraction of the nth substance listed; details: 298.15 K, 101 kPa, Liquid, Standard Abbe refractometry
[5] = refractive index (Na D-line) (dimensionless); cn = amount concentration of the nth substance listed, in mol/dm3; details: 298.15 K, 101 kPa, Liquid, Standard Abbe refractometry
[6] = cn = amount concentration of the nth substance listed, in mol/dm3; details: 298.15 K, 101 kPa, Liquid, Alternating current cell with electrodes

O=[N+]([O-])c1ccccc1 [nitrobenzene]
Details	mass density [kg/m3]	refractive index	viscosity [mPa·s]
[1]	1197.7	–	1.809
[2]	–	1.5493	–

O=[N+]([O-])c1ccccc1 [nitrobenzene] + C[N+](=O)[O-]
w2 = 0
Details	mass density [kg/m3]	refractive index	viscosity [mPa·s]
[3]	1197.7	–	1.809
[4]	–	1.5493	–

O=[N+]([O-])c1ccccc1 [nitrobenzene] + [Na+].c1ccc([B-](c2ccccc2)(c2ccccc2)c2ccccc2)cc1
Details	refractive index
[5], c2 = 0	1.5493

C[N+](=O)[O-] [nitromethane]
Details	mass density [kg/m3]	refractive index	viscosity [mPa·s]
[1]	1128.8	–	0.614
[2]	–	1.3799	–

C[N+](=O)[O-] [nitromethane] + O=[N+]([O-])c1ccccc1
Details	mass density, [3] [kg/m3]	refractive index, [4]	viscosity, [3] [mPa·s]
w1 = 0.25	1178.4	1.5051	0.918
w1 = 0.5	1161.1	1.4623	0.827
w1 = 0.75	1144.7	1.4201	0.745
w1 = 1	1128.8	1.3799	0.614

C[N+](=O)[O-] [nitromethane] + [Na+].c1ccc([B-](c2ccccc2)(c2ccccc2)c2ccccc2)cc1
Details	refractive index
[5], c2 = 0	1.3799

[Na+].c1ccc([B-](c2ccccc2)(c2ccccc2)c2ccccc2)cc1 [sodium tetraphenylboron] + C[N+](=O)[O-]
Details	molar conductivity [S·m2/mol]	refractive index
[5], c1 = 0.0044	–	1.3803
[5], c1 = 0.0178	–	1.3811
[5], c1 = 0.0313	–	1.3819
[5], c1 = 0.0449	–	1.3826
[5], c1 = 0.0586	–	1.3837
[6], c1 = 0.001163	0.008583	–
[6], c1 = 0.002132	0.008413	–
[6], c1 = 0.002952	0.008296	–
[6], c1 = 0.003655	0.008195	–
[6], c1 = 0.004797	0.008057	–
[6], c1 = 0.005686	0.007972	–
[6], c1 = 0.006397	0.007909	–
[6], c1 = 0.006701	0.007878	–
[6], c1 = 0.007231	0.007825	–
[6], c1 = 0.007676	0.007789	–
[6], c1 = 0.008055	0.00776	–
[6], c1 = 0.008382	0.007739	–

[Na+].c1ccc([B-](c2ccccc2)(c2ccccc2)c2ccccc2)cc1 [sodium tetraphenylboron] + O=[N+]([O-])c1ccccc1
Details	molar conductivity [S·m2/mol]	refractive index
[5], c1 = 0.0042	–	1.5498
[5], c1 = 0.0168	–	1.5506
[5], c1 = 0.0295	–	1.5511
[5], c1 = 0.0423	–	1.5518
[5], c1 = 0.0552	–	1.5526
[6], c1 = 0.001579	0.00273	–
[6], c1 = 0.002187	0.002689	–
[6], c1 = 0.002707	0.00266	–
[6], c1 = 0.003159	0.002634	–
[6], c1 = 0.003902	0.002597	–
[6], c1 = 0.004489	0.002572	–
[6], c1 = 0.004964	0.002553	–
[6], c1 = 0.005966	0.002516	–
[6], c1 = 0.006419	0.0025	–
[6], c1 = 0.006844	0.002482	–
[6], c1 = 0.00722	0.002471	–
[6], c1 = 0.007448	0.002463	–
